Results taken from patent US4665022A (priority 1984, dated 1987).
Read-outs that look alike come from different tables or passages of the source.

Legend:
[1] = target: nACh receptors in the cerebral cortex (Rattus norvegicus, UniProt Q05941); test: biochemical; type: binding
nicotinic binding sites = target: nicotinic binding sites; design: species or system rat

Sequence of nACh receptors in the cerebral cortex (Q05941 23-502): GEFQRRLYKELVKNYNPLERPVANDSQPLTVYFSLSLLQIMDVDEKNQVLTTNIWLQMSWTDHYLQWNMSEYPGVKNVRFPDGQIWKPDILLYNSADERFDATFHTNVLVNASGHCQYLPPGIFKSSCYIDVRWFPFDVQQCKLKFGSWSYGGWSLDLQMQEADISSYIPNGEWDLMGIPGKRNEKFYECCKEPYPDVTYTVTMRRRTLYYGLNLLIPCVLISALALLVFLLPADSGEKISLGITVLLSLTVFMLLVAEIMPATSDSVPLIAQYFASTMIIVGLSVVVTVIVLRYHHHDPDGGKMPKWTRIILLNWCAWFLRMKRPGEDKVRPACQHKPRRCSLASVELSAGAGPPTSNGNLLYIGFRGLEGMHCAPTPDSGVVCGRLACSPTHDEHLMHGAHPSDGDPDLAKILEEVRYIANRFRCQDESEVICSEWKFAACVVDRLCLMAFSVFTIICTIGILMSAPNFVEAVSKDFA

Molecule | Ki ([1]; read-out: KI) | Ki [1] | Ki (nicotinic binding sites)
C[N+](C)(C)CCOC(N)=O [carbamyl choline] | 0.2 µM |  | 
COc1cc2c3cc1Oc1cc(ccc1O)C[C@@H]1c4c(cc(OC)c(O)c4Oc4ccc(cc4)C[C@@H]3N(C)CC2)CC[N+]1(C)C [d-tubocurarine] | 0.06 µM |  | 
CN1[C@@H]2C[C@@H](OC(=O)[C@H](CO)c3ccccc3)C[C@H]1[C@@H]1O[C@@H]12 [scopolamine] |  | > 10000 µM | 
alpha-bungarotoxin | 0.00012 µM |  | 0.13 nM
